In test [1] the target is CB1-receptor (UniProt P20272). Nature of the test: In-vitro determination of affinity (binding) to CB1-receptors, radioligand [3H]-CP55940. Details: % inh; 10^−7 M; compound at 10^−7 M; species or system human or rat. Particulars: compound at 10^−7 M. On the procedure:
(§1) I. In-Vitro Determination of Affinity to CB1/CB2-Receptors
(§2) The in-vitro determination of the affinity of the inventive substituted pyrazoline compounds to CB1/CB2-Rezeptors is carried out as described in the publication of Ruth A. Ross, Heather C. Brockie et al., “Agonist-inverse agonist characterisation at CB1 and CB2 cannabinoid receptors of L-759633, L759656 and AM630”, British Journal of Pharmacology, 126, 665-672, (1999), whereby the transfected human CB1 and CB2 receptors of Receptor Biology, Inc. are used. The radioligand used for both receptors is [^3H]-CP55940. The respective parts of the description is hereby incorporated by reference and forms part of the present disclosure.
(§3) Rat Cerebellum CB1 Binding
(§4) Binding affinity to CB1 receptor was evaluated according to a modification of the method described by Govaerts et al., Eur J Pharmac Sci 23, 233-243 (2004). The respective parts of the description is hereby incorporated by reference and forms part of the present disclosure.
(§5) Briefly, cerebellum from male wistar rats (250-300 g) were carefully dissected on ice and homogenates were prepared with Potter-Helveheim in a cold 50 mM Tris-HCl solution containing 5 mM MgCl2, 1 mM EDTA and 0.25 M sucrose, pH 7.4. The suspension was centrifuged at 1,000×g for 5 minutes. The supernatants were collected and centrifuged 50,000×g for 15 minutes. The resulting pellets were then resuspended in Tris-HCl buffer without sucrose, homogenised and incubated for 15 min at 37° C. in an orbital shaker bath and centrifuged again at 50,000×g for 15 min. Pellets were weighted, resuspended in Tris-HCl buffer without sucrose, homogenised with Ultraturrax at 13,500 rpm for 3×5 seconds and alicuoted in 0.9 ml volumes in Eppendorf tubes. Alicuotes were centrifuged at 20,800×g for 5 minutes, supernatants discarded and pellets were frozen at −80° C. until use. Total protein concentration was determined using the Bio-Rad Lowry method based kit. Competitive binding experiments were performed in presence of 1 nM [^3H]-CP 55,940 in siliconised glass tubes containing 100 μg protein/tube resuspended in 1 ml final volume of 50 mM Tris-HCl, 5 mM MgCl2, 1 mM EDTA, 0.5% (w/v) bovine serum albumin, pH 7.4. Compounds were present at various concentrations and the non specific binding was determined in the presence of 10 μM HU-210. After 1 hour incubation at 30° C., the suspension was rapidly filtered through 0.5% PEI pre-treated GF/B fiber filters on a 96-well harvester and washed 3 times with 3 ml ice-cold binding buffer without bovine serum albumin. Radioactivity on filters was measured with Wallac Winspectral 1414 counter by liquid scintillation in 6 ml Ecoscint H (National Diagnostics, U.K.). Assays were made in triplicates.
(§6) Binding data were analysed by non-linear regression with the software GraphPad Prism Version 3.03.
(§7) The binding of the pyrazoline compounds of general formulae I, Ia and Ib to CB1-receptors was determined according to the method described in the section Pharmacological Methods, Part I.

The target in test [2] is CB1-receptor (UniProt P20272). The description is as above. Details: IC50; Ki; species or system human or rat. Particulars: Pharmacological Methods Part I. On the procedure: as §1, §2, §3, §4, §5, §6, §7

Molecules are shown by their SMILES.

A word on the IC50: it is the point on the concentration scale where inhibition reaches its midpoint. Higher therefore signals weaker potency in that assay. Take `CCS(=O)(=O)NCC1=NN(c2ccc(Cl)cc2Cl)C(c2ccc(Cl)cc2)C1` (stereo not drawn) [Example 14, Ethanesulfonic acid [5-(4-chloro-phenyl)-1-(2,4-dichloro-phenyl)-4,5-dihydro-1H-pyrazol-3-ylmethyl]-amide]: in test [1], the “% inh. 10^−7 M” value worked out at 76.6%. The compound further displayed an IC50 in test [2] of 458 nM.
What is called Ki is the equilibrium dissociation constant of an inhibitor or competing ligand from its target. On to `Cc1cc(C)c(S(=O)(=O)NCC2=NN(c3ccc(Cl)cc3Cl)C(c3ccc(Cl)cc3)C2)c(C)c1` (stereo not drawn) [Example 40, N-[5-(4-Chloro-phenyl)-1-(2,4-dichloro-phenyl)-4,5-dihydro-1H-pyrazol-3-ylmethyl]-2,4,6-trimethyl-benzenesulfonamide], for which the “% inh. 10^−7 M” value in test [1] was determined as 51.9%. In test [2], this compound yielded an IC50 of 97 nM and a Ki of 43.9 nM.
For `CC1(C)C2CCC1(CS(=O)(=O)NCC1=NN(c3ccc(Cl)cc3Cl)C(c3ccc(Cl)cc3)C1)C(=O)C2` (stereo not drawn) [Example 7, N-[5-(4-Chloro-phenyl)-1-(2,4-dichloro-phenyl)-4,5-dihydro-1H-pyrazol-3-ylmethyl]-C-(7,7-dimethyl-2-oxo-bicyclo[2.2.1]hept-1-yl)-methanesulfonamide], the “% inh. 10^−7 M” value in test [1] is reported as 11.9%. The compound also returned a half-inhibitory concentration (IC50) in test [2] of 184 nM.
With `Cc1ccc(C)c(S(=O)(=O)NCC2=NN(c3ccc(Cl)cc3Cl)C(c3ccc(Cl)cc3)C2)c1` (stereo not drawn) [Example 44, N-[5-(4-Chloro-phenyl)-1-(2,4-dichloro-phenyl)-4,5-dihydro-1H-pyrazol-3-ylmethyl]-2,5-dimethyl-benzenesulfonamide], the “% inh. 10^−7 M” value in test [1] is 54.1%. In test [2], the half-maximal inhibitory concentration (IC50) was found to be 15 nM and the Ki came to 7.3 nM.
Turning to `Cc1ccc(F)cc1S(=O)(=O)NCC1=NN(c2ccc(Cl)cc2Cl)C(c2ccc(Cl)cc2)C1` (stereo not drawn) [Example 38, N-[5-(4-Chloro-phenyl)-1-(2,4-dichloro-phenyl)-4,5-dihydro-1H-pyrazol-3-ylmethyl]-5-fluoro-2-methyl-benzenesulfonamide], the “% inh. 10^−7 M” value in test [1] was 74.0%. Moreover, the concentration for half-maximal inhibition (IC50) in test [2] worked out at 4.4 nM.
Taken in the same sequence, the figures for `O=S(=O)(NCC1=NN(c2ccc(Cl)cc2Cl)C(c2ccc(Cl)cc2)C1)c1cccc(Cl)c1` (stereo not drawn) [Example 1, 3-Chloro-N-[5-(4-chloro-phenyl)-1-(2,4-dichloro-phenyl)-4,5-dihydro-1H-pyrazol-3-ylmethyl]-benzenesulfonamide] were 27.1% and 388 nM.
Taken in the same sequence, the figures for `O=S(=O)(NCC1=NN(c2ccc(Cl)cc2Cl)C(c2ccc(Cl)cc2)C1)C1=C(Cl)NC2SC=CN12` (stereo not drawn) [Example 32, 6-Chloro-7,7a-dihydro-imidazo[2,1-b]thiazole-5-sulfonic acid [5-(4-chloro-phenyl)-1-(2,4-dichloro-phenyl)-4,5-dihydro-1H-pyrazol-3-ylmethyl]-amide] were 20.0% and 121 nM.
Taken in the same sequence, the figures for `Cc1cc(S(=O)(=O)NCC2=NN(c3ccc(Cl)cc3Cl)C(c3ccc(Cl)cc3)C2)c(C)cc1Cl` (stereo not drawn) [Example 39, 4-Chloro-N-[5-(4-chloro-phenyl)-1-(2,4-dichloro-phenyl)-4,5-dihydro-1H-pyrazol-3-ylmethyl]-2,5-dimethyl-benzenesulfonamide] were 53.2% and 20.6 nM.
Take `N#Cc1cccc(S(=O)(=O)NCC2=NN(c3ccc(Cl)cc3Cl)C(c3ccc(Cl)cc3)C2)c1` (stereo not drawn) [Example 10, N-((5-(4-chlorophenyl)-1-(2,4-dichlorophenyl)-4,5-dihydro-1H-pyrazol-3-yl)methyl)-3-cyanobenzenesulfonamid]: the “% inh. 10^−7 M” value in test [1] was 48.6%. In test [2], this compound showed a half-maximal inhibitory concentration (IC50) of 70 nM.
Turning to `CCCS(=O)(=O)NCC1=NN(c2ccc(Cl)cc2Cl)C(c2ccc(Cl)cc2)C1` (stereo not drawn) [Example 21, Propane-1-sulfonic acid [5-(4-chloro-phenyl)-1-(2,4-dichloro-phenyl)-4,5-dihydro-1H-pyrazol-3-ylmethyl]-amide], the “% inh. 10^−7 M” value in test [1] is reported as 80.6%. In test [2], this compound came in with an IC50 of 263 nM.
Regarding `O=S(=O)(NCC1=NN(c2ccc(Cl)cc2Cl)C(c2ccc(Cl)cc2)C1)c1ccccc1Cl` (stereo not drawn) [Example 23, 2-Chloro-N-[5-(4-chloro-phenyl)-1-(2,4-dichloro-phenyl)-4,5-dihydro-1H-pyrazol-3-ylmethyl]-benzenesulfonamide], in test [1], the “% inh. 10^−7 M” value is 54.9%. Further, in test [2], the concentration for half-maximal inhibition (IC50) turned out to be 183 nM.
As to `Cc1cccc(Cl)c1S(=O)(=O)NCC1=NN(c2ccc(Cl)cc2Cl)C(c2ccc(Cl)cc2)C1` (stereo not drawn) [Example 34, 2-Chloro-N-[5-(4-chloro-phenyl)-1-(2,4-dichloro-phenyl)-4,5-dihydro-1H-pyrazol-3-ylmethyl]-6-methyl-benzenesulfonamide], in test [1], the “% inh. 10^−7 M” value turned out to be 53.8%. Moreover, the IC50 in test [2] came out at 14.1 nM.
Take `O=S(=O)(NCC1=NN(c2ccc(Cl)cc2Cl)C(c2ccc(Cl)cc2)C1)c1ccsc1` (stereo not drawn) [Example 9, Thiophene-3-sulfonic acid [5-(4-chloro-phenyl)-1-(2,4-dichloro-phenyl)-4,5-dihydro-1H-pyrazol-3-ylmethyl]-amide]: in test [1], the “% inh. 10^−7 M” value came out at 54.3%. In addition, in test [2], the 50% inhibitory concentration (IC50) is 67.7 nM and the affinity corresponds to a Ki of 30.6 nM.
In the case of `O=S(=O)(NCC1=NN(c2ccc(Cl)cc2Cl)C(c2ccc(Cl)cc2)C1)c1cccc(C(F)(F)F)c1` (stereo not drawn) [Example 18, N-[5-(4-Chloro-phenyl)-1-(2,4-dichloro-phenyl)-4,5-dihydro-1H-pyrazol-3-ylmethyl]-3-trifluoromethyl-benzenesulfonamide], the “% inh. 10^−7 M” value in test [1] is 26.1%. Also, in test [2], the IC50 was found to be 140 nM.
Taken in the same sequence, the figures for `O=S(=O)(Cc1ccccc1)NCC1=NN(c2ccc(Cl)cc2Cl)C(c2ccc(Cl)cc2)C1` (stereo not drawn) [Example 12, N-[5-(4-Chloro-phenyl)-1-(2,4-dichloro-phenyl)-4,5-dihydro-1H-pyrazol-3-ylmethyl]-C-phenyl-methanesulfonamide] were 39.4% and 130 nM.

For the origin of these results see US8044053B2, “Sulfonamide substituted pyrazoline compounds, their preparation and use as CB1 modulators” (Laboratories del Dr. Esteve, S.A., priority 2006, dated 2011).
